As usually defined, the IC50 is the concentration that gives 50% inhibition.

Among the data in BindingDB's records for patent US20250346600 (Moma Therapeutics, 2025) are IC50 values, retold here.

The target in assay [1] is T1, Bifunctional 3'-5' exonuclease/ATP-dependent helicase WRN [2-1432] (UniProt Q14191).
T1 construct: 2-1432
Briefly: WRN activity Format A. How it is done: Full length WRN protein (aa 2-1432) (production described separately) was used for the biochemical activity assays. The 39-mer ssDNA “C6.18” ([…]) was purchased from IDT and used as a substrate. Quantification of ATP hydrolysis was evaluated using the ADP-Glo assay kit (Promega, Madison, WI). An enzyme titration time-course was performed to determine the optimal assay conditions. […] To evaluate the inhibitory effects of the compounds, 11-point 3-fold serial dilutions were prepared in DMSO.50nL of each concentration in duplicate was preincubated for 30 minutes in a 384-well microplate (Greiner #784075) with 5μL of 0.5nM WRN in assay buffer. The reaction was initiated by adding 5μL of 200nM C6.18 DNA with 20μM ATP and was allowed to proceed for 30 minutes at room temperature. The reaction was stopped with 10μL ADP-Glo reagent for 1 hour to remove unreacted ATP. Lastly, 20μL ATP detection reagent was added and incubated for 1 hour to generate the luminescence signal. Control wells included “high controls” with no inhibition (DMSO, no compound) and “low controls” with maximum inhibition (no WRN). Luminescence was recorded on a PHERAstar (BMG Labtech, Ortenberg, Germany). Data was fit using the “Smart Fit” method within the Genedata Screener Software (Basel, Switzerland) to obtain IC50 values using four-parameter fits. Reported IC50s are the geometric means of at least two independent trials.

Assay [2] deals with T1, Bifunctional 3'-5' exonuclease/ATP-dependent helicase WRN [2-1432]. In words: WRN activity Format B. How it is done: The 39-mer ssDNA “C6.18” ([…]) was purchased from IDT and used as a substrate. Quantification of ATP hydrolysis was evaluated using the ADP-Glo assay kit (Promega, Madison, WI). An enzyme titration time-course was performed to determine the optimal assay conditions. […] Data was fit using the “Smart Fit” method within the Genedata Screener Software (Basel, Switzerland) to obtain IC50 values using four-parameter fits. Reported IC50s are the geometric means of at least two independent trials.

T1 sequence (Q14191 2-1432): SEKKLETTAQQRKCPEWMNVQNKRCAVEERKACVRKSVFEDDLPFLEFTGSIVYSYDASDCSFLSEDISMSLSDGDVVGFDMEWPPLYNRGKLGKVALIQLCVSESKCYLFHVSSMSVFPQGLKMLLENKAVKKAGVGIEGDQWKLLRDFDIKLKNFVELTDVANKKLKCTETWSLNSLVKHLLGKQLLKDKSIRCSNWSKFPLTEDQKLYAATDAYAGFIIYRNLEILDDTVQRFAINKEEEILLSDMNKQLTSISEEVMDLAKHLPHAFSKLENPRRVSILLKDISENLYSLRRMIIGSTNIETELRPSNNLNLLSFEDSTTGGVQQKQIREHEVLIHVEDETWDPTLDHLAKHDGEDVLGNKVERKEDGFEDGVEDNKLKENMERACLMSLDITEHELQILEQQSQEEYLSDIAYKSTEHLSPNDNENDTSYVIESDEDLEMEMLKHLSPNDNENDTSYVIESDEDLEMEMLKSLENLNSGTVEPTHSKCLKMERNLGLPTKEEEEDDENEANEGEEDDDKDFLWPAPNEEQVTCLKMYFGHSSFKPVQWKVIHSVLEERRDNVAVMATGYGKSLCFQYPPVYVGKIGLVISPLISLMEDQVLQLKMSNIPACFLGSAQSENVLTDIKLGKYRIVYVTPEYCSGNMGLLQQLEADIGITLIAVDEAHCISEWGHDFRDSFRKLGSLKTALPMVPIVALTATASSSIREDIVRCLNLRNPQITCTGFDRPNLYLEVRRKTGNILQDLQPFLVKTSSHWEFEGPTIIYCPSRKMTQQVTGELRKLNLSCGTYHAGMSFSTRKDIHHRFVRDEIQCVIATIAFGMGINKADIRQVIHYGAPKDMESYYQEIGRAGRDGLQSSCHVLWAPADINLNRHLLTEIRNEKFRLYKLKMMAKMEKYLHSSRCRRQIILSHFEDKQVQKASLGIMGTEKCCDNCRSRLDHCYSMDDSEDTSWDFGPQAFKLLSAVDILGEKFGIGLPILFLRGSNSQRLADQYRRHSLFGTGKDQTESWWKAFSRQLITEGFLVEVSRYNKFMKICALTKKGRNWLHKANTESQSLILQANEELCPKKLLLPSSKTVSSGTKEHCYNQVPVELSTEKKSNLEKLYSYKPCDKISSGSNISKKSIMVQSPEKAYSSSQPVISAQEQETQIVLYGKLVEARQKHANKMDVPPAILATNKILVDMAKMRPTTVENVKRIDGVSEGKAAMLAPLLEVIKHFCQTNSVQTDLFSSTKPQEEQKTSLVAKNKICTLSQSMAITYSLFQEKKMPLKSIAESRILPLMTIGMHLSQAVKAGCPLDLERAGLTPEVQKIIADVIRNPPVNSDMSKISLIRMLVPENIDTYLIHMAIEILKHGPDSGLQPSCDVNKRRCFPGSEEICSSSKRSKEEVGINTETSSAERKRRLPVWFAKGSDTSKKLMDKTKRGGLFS

Turning to `C=CC(=O)N1CCOc2nn(-c3ccc(C4CCC4)cc3O)c3c2C(C1)N(C(=O)C1=CC2=NN=C(Br)C2=CC1)CC3` (stereo not drawn) [US20250346600, Compound 40], the IC50 was < 0.0015 µM in assay [1] and “in the range around 0.035 µM” in assay [2].

Take `C=CC(=O)N1CCc2nn(-c3ccc(C4CC4)cc3)c3c2C(C1)N(C(=O)C1=CN=C2N=C(C(F)(F)F)N=C2C1)CC3` (stereo not drawn) [US20250346600, Compound 124]: the IC50 result in assay [1] was “in the range around 0.035 µM”.
